# Source: patent US20230330093A1, “APPLICATION OF NITROGEN-CONTAINING SATURATED HETEROCYCLIC COMPOUND” (SHANGHAI PHARMACEUTICALS HOLDING CO., LTD., priority 2020, published 2023)
# Test system: cynomolgus monkeys
# Test: 4-week safety study: necropsy, gross pathology and organ weights;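 also: daily nasogastric dosing for 28 days, organs weighed at necropsy on day 28 or after a 28-day drug-free recovery (day 56), relative weights expressed as percent of body or brain weight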
# Procedure: Cynomolgus monkeys (5/sex/group) were selected using a computerized randomization procedure based on body weight, and the compound of Formula I was administered to the cynomolgus monkeys by nasogastric feeding at dose levels of 0 (control), 20, 100, 450 mg/kg/day in a volume of 5 ml/kg. Individual dose volumes were adjusted weekly based on body weight of animals. For all the groups, 2/3 of the animals were randomly selected and euthanized on day 28. The remaining animals were euthanized after 28-day drug free period.
# A complete gross necropsy was conducted on all animals by visual inspection at the end of the exposure period (day 28) and the recovery phase (day 56). The following selected organs were trimmed, weighed and evaluated in terms of absolute weight and as a percentage of final body weight or brain weight: brain, heart, kidney, liver, spleen, thymus, testes, epididymides, uterus, ovaries, adrenals and thyroid (including the parathyroid). The following tissues were preserved in 10% neutral buffered formalin: brain, pituitary gland, thyroid (including the parathyroid), trachea, heart, pancreas, spleen, adrenal glands, prostate, ovaries, uterus (including cervix uteri and oviduct), vagina, testes, epididymides, seminal vesicle, esophagus, duodenum, jejunum, ileum, cecum, colon, rectum, mesenteric lymph nodes, Peyer's patches, submaxillary lymph nodes, aorta, eyes, skeletal muscle, sciatic nerve, femur (including metaphysis), mammary gland, sternum, salivary glands, spinal cord, urinary bladder, lung (including the bronchi), liver, kidneys, stomach, bone marrow (sternal), thymus, sternum, gallbladder, any gross lesions or masses. The lung tissue was inflated with fixative at the time of necropsy. All the preserved tissues were paraffin embedded, sectioned, stained with hematoxylin and eosin (HE) and examined microscopically. Bone marrow cellular morphology examination was conducted with both smear (sternum) and paraffin-embedded sternum section.
# For each sex, body weight, rectal temperature, ECG, organ weight, hematological parameters and serum biochemical data were analyzed with a statistical software SAS 9.3. Firstly homogeneity of variance was analyzed using Levene's test. If P>0.05, the one-way ANOVA analysis was employed. If P<0.05, the Kruskal-Wallis test was used. If the resulting ANOVA p-value was <0.05, a comparison of each group using the Dunnett T test was performed. If the resulting Kruskal-Wallis test p-value was <0.05, then the Dunnett T test was performed after data rank conversion.
smiles,measurement,setting,value
COC(=O)NCCCn1nc([C@@H](C)N(C(=O)[C@H]2CNCCO2)C2CC2)c2ccc(C)nc21 [compound of Formula I],Liver Absolute weight,"Female, 20 mg/kg, d 28",58.37 ± 7.38 g
same,Liver Relative weight (/body weight),"Female, 20 mg/kg, d 28",2.06 ± 0.22
same,Liver Relative weight (/brain weight),"Female, 20 mg/kg, d 28",90.10 ± 7.72
same,Thymus Absolute weight,"Female, 20 mg/kg, d 28",1.23 ± 0.40 g
same,Thymus Relative weight (/body weight),"Female, 20 mg/kg, d 28",0.04 ± 0.01
same,Thymus Relative weight (/brain weight),"Female, 20 mg/kg, d 28",1.87 ± 0.46
same,Uterus Absolute weight,"Female, 20 mg/kg, d 28",5.97 ± 1.20 g
same,Uterus Relative weight (/body weight),"Female, 20 mg/kg, d 28",0.21 ± 0.04
same,Uterus Relative weight (/brain weight),"Female, 20 mg/kg, d 28",9.19 ± 1.57
same,kidney Absolute weight,"Female, 20 mg/kg, d 28",12.20 ± 2.23 g
same,kidney Relative weight (/body weight),"Female, 20 mg/kg, d 28",0.43 ± 0.07
same,kidney Relative weight (/brain weight),"Female, 20 mg/kg, d 28",18.73 ± 1.74
same,Liver Absolute weight,"Female, 20 mg/kg, d 56",68.35 ± 3.32 g
same,Liver Relative weight (/body weight),"Female, 20 mg/kg, d 56",2.01 ± 0.07
same,Liver Relative weight (/brain weight),"Female, 20 mg/kg, d 56",104.00 ± 10.62
same,Thymus Absolute weight,"Female, 20 mg/kg, d 56",2.00 ± 0.71 g
same,Thymus Relative weight (/body weight),"Female, 20 mg/kg, d 56",0.06 ± 0.02
same,Thymus Relative weight (/brain weight),"Female, 20 mg/kg, d 56",3.07 ± 1.24
same,Uterus Absolute weight,"Female, 20 mg/kg, d 56",11.30 ± 3.25 g
same,Uterus Relative weight (/body weight),"Female, 20 mg/kg, d 56",0.33 ± 0.07
same,Uterus Relative weight (/brain weight),"Female, 20 mg/kg, d 56",17.30 ± 5.86
same,kidney Absolute weight,"Female, 20 mg/kg, d 56",13.75 ± 0.78 g
same,kidney Relative weight (/body weight),"Female, 20 mg/kg, d 56",0.41 ± 0.06
same,kidney Relative weight (/brain weight),"Female, 20 mg/kg, d 56",20.86 ± 0.06
same,Liver Absolute weight,"Female, 100 mg/kg, d 28",57.60 ± 4.25 g
same,Liver Relative weight (/body weight),"Female, 100 mg/kg, d 28",1.96 ± 0.13
same,Liver Relative weight (/brain weight),"Female, 100 mg/kg, d 28",96.55 ± 7.51
same,Thymus Absolute weight,"Female, 100 mg/kg, d 28",0.73 ± 0.50 g
same,Thymus Relative weight (/body weight),"Female, 100 mg/kg, d 28",0.02 ± 0.02
same,Thymus Relative weight (/brain weight),"Female, 100 mg/kg, d 28",1.18 ± 0.73
same,Uterus Absolute weight,"Female, 100 mg/kg, d 28",7.03 ± 0.94 g
same,Uterus Relative weight (/body weight),"Female, 100 mg/kg, d 28",0.24 ± 0.03
same,Uterus Relative weight (/brain weight),"Female, 100 mg/kg, d 28",11.84 ± 2.02
same,kidney Absolute weight,"Female, 100 mg/kg, d 28",11.67 ± 0.71 g
same,kidney Relative weight (/body weight),"Female, 100 mg/kg, d 28",0.40 ± 0.02
same,kidney Relative weight (/brain weight),"Female, 100 mg/kg, d 28",19.61 ± 1.86
same,Liver Absolute weight,"Female, 100 mg/kg, d 56",68.45 ± 20.01 g
same,Liver Relative weight (/body weight),"Female, 100 mg/kg, d 56",1.86 ± 0.37
same,Liver Relative weight (/brain weight),"Female, 100 mg/kg, d 56",104.90 ± 37.06
same,Thymus Absolute weight,"Female, 100 mg/kg, d 56",2.35 ± 0.49 g
same,Thymus Relative weight (/body weight),"Female, 100 mg/kg, d 56",0.07 ± 0.02
same,Thymus Relative weight (/brain weight),"Female, 100 mg/kg, d 56",3.54 ± 0.52
same,Uterus Absolute weight,"Female, 100 mg/kg, d 56",8.30 ± 3.39 g
same,Uterus Relative weight (/body weight),"Female, 100 mg/kg, d 56",0.23 ± 0.12
same,Uterus Relative weight (/brain weight),"Female, 100 mg/kg, d 56",12.44 ± 4.34
same,kidney Absolute weight,"Female, 100 mg/kg, d 56",14.15 ± 2.33 g
same,kidney Relative weight (/body weight),"Female, 100 mg/kg, d 56",0.39 ± 0.03
same,kidney Relative weight (/brain weight),"Female, 100 mg/kg, d 56",21.60 ± 4.92
same,Liver Absolute weight,"Female, 450 mg/kg, d 28",69.40 ± 3.68 g
same,Liver Relative weight (/body weight),"Female, 450 mg/kg, d 28",2.78 ± 0.31
same,Liver Relative weight (/brain weight),"Female, 450 mg/kg, d 28",112.03 ± 12.42
same,Thymus Absolute weight,"Female, 450 mg/kg, d 28",0.50 ± 0.14 g
same,Thymus Relative weight (/body weight),"Female, 450 mg/kg, d 28",0.02 ± 0.01
same,Thymus Relative weight (/brain weight),"Female, 450 mg/kg, d 28",0.81 ± 0.27
same,Uterus Absolute weight,"Female, 450 mg/kg, d 28",3.50 ± 0.14 g
same,Uterus Relative weight (/body weight),"Female, 450 mg/kg, d 28",0.14 ± 0.01
same,Uterus Relative weight (/brain weight),"Female, 450 mg/kg, d 28",5.63 ± 0.10
same,kidney Absolute weight,"Female, 450 mg/kg, d 28",12.95 ± 0.07 g
same,kidney Relative weight (/body weight),"Female, 450 mg/kg, d 28",0.52 ± 0.03
same,kidney Relative weight (/brain weight),"Female, 450 mg/kg, d 28",20.87 ± 1.10
same,Liver Absolute weight,"Female, 450 mg/kg, d 56",72.40 ± 11.74 g
same,Liver Relative weight (/body weight),"Female, 450 mg/kg, d 56",2.04 ± 0.05
same,Liver Relative weight (/brain weight),"Female, 450 mg/kg, d 56",109.03 ± 13.64
same,Thymus Absolute weight,"Female, 450 mg/kg, d 56",1.40 ± 0.14 g
same,Thymus Relative weight (/body weight),"Female, 450 mg/kg, d 56",0.04 ± 0.01
same,Thymus Relative weight (/brain weight),"Female, 450 mg/kg, d 56",2.12 ± 0.29
same,Uterus Absolute weight,"Female, 450 mg/kg, d 56",9.60 ± 2.40 g
same,Uterus Relative weight (/body weight),"Female, 450 mg/kg, d 56",0.27 ± 0.03
same,Uterus Relative weight (/brain weight),"Female, 450 mg/kg, d 56",14.43 ± 3.09
same,kidney Absolute weight,"Female, 450 mg/kg, d 56",14.75 ± 1.91 g
same,kidney Relative weight (/body weight),"Female, 450 mg/kg, d 56",0.42 ± 0.00
same,kidney Relative weight (/brain weight),"Female, 450 mg/kg, d 56",22.23 ± 2.05
same,Liver Absolute weight,"Male, 20 mg/kg, d 28",69.03 ± 2.87 g
same,Liver Relative weight (/body weight),"Male, 20 mg/kg, d 28",1.82 ± 0.21
same,Liver Relative weight (/brain weight),"Male, 20 mg/kg, d 28",103.68 ± 11.79
same,Thymus Absolute weight,"Male, 20 mg/kg, d 28",1.10 ± 0.20 g
same,Thymus Relative weight (/body weight),"Male, 20 mg/kg, d 28",0.03 ± 0.01
same,Thymus Relative weight (/brain weight),"Male, 20 mg/kg, d 28",1.67 ± 0.43
same,kidney Absolute weight,"Male, 20 mg/kg, d 28",14.30 ± 1.42 g
same,kidney Relative weight (/body weight),"Male, 20 mg/kg, d 28",0.37 ± 0.02
same,kidney Relative weight (/brain weight),"Male, 20 mg/kg, d 28",21.46 ± 2.99
same,Liver Absolute weight,"Male, 20 mg/kg, d 56",71.25 ± 1.77 g
same,Liver Relative weight (/body weight),"Male, 20 mg/kg, d 56",1.44 ± 0.02
same,Liver Relative weight (/brain weight),"Male, 20 mg/kg, d 56",100.96 ± 1.74
same,Thymus Absolute weight,"Male, 20 mg/kg, d 56",2.95 ± 0.07 g
same,Thymus Relative weight (/body weight),"Male, 20 mg/kg, d 56",0.06 ± 0.00
same,Thymus Relative weight (/brain weight),"Male, 20 mg/kg, d 56",4.18 ± 0.08
same,kidney Absolute weight,"Male, 20 mg/kg, d 56",16.40 ± 3.11 g
same,kidney Relative weight (/body weight),"Male, 20 mg/kg, d 56",0.33 ± 0.06
same,kidney Relative weight (/brain weight),"Male, 20 mg/kg, d 56",23.16 ± 3.43
same,Liver Absolute weight,"Male, 100 mg/kg, d 28",72.93 ± 14.69 g
same,Liver Relative weight (/body weight),"Male, 100 mg/kg, d 28",1.83 ± 0.25
same,Liver Relative weight (/brain weight),"Male, 100 mg/kg, d 28",100.31 ± 9.48
same,Thymus Absolute weight,"Male, 100 mg/kg, d 28",1.57 ± 0.90 g
same,Thymus Relative weight (/body weight),"Male, 100 mg/kg, d 28",0.04 ± 0.03
same,Thymus Relative weight (/brain weight),"Male, 100 mg/kg, d 28",2.27 ± 1.44
same,kidney Absolute weight,"Male, 100 mg/kg, d 28",15.13 ± 3.62 g
same,kidney Relative weight (/body weight),"Male, 100 mg/kg, d 28",0.37 ± 0.06
same,kidney Relative weight (/brain weight),"Male, 100 mg/kg, d 28",20.85 ± 3.95
same,Liver Absolute weight,"Male, 100 mg/kg, d 56",84.75 ± 5.59 g
same,Liver Relative weight (/body weight),"Male, 100 mg/kg, d 56",1.76 ± 0.06
same,Liver Relative weight (/brain weight),"Male, 100 mg/kg, d 56",115.98 ± 8.59
same,Thymus Absolute weight,"Male, 100 mg/kg, d 56",2.45 ± 0.35 g
same,Thymus Relative weight (/body weight),"Male, 100 mg/kg, d 56",0.05 ± 0.01
same,Thymus Relative weight (/brain weight),"Male, 100 mg/kg, d 56",3.33 ± 0.02
same,kidney Absolute weight,"Male, 100 mg/kg, d 56",17.85 ± 1.91 g
same,kidney Relative weight (/body weight),"Male, 100 mg/kg, d 56",0.37 ± 0.03
same,kidney Relative weight (/brain weight),"Male, 100 mg/kg, d 56",24.36 ± 0.80
same,Liver Absolute weight,"Male, 450 mg/kg, d 28",94.37 ± 12.72 g
same,Liver Relative weight (/body weight),"Male, 450 mg/kg, d 28",2.42 ± 0.20
same,Liver Relative weight (/brain weight),"Male, 450 mg/kg, d 28",135.54 ± 14.14
same,Thymus Absolute weight,"Male, 450 mg/kg, d 28",0.90 ± 0.10 g
same,Thymus Relative weight (/body weight),"Male, 450 mg/kg, d 28",0.02 ± 0.01
same,Thymus Relative weight (/brain weight),"Male, 450 mg/kg, d 28",1.30 ± 0.20
same,kidney Absolute weight,"Male, 450 mg/kg, d 28",16.77 ± 2.31 g
same,kidney Relative weight (/body weight),"Male, 450 mg/kg, d 28",0.43 ± 0.03
same,kidney Relative weight (/brain weight),"Male, 450 mg/kg, d 28",24.07 ± 2.45
same,Liver Absolute weight,"Male, 450 mg/kg, d 56",80.90 ± 4.95 g
same,Liver Relative weight (/body weight),"Male, 450 mg/kg, d 56",1.64 ± 0.22
same,Liver Relative weight (/brain weight),"Male, 450 mg/kg, d 56",119.80 ± 2.56
same,Thymus Absolute weight,"Male, 450 mg/kg, d 56",2.20 ± 0.42 g
same,Thymus Relative weight (/body weight),"Male, 450 mg/kg, d 56",0.04 ± 0.01
same,Thymus Relative weight (/brain weight),"Male, 450 mg/kg, d 56",3.25 ± 0.50
same,kidney Absolute weight,"Male, 450 mg/kg, d 56",18.75 ± 0.21 g
same,kidney Relative weight (/body weight),"Male, 450 mg/kg, d 56",0.38 ± 0.02
same,kidney Relative weight (/brain weight),"Male, 450 mg/kg, d 56",27.81 ± 1.42
same,absolute or relative weight of uterus,high-dose monkeys,lower
same,relative weight of liver and kidney,high-dose monkeys,Higher
same,relative weight of thymus,high-dose monkeys,lower
same,macroscopic findings related to administration,necropsy day 28 / day 56,no macroscopic findings for monkeys deemed related to administration of the test article except mild intestinal tympanites and thymus atrophy for the monkey that died early
